Data reported in patent publication US20230257383A1, “COMPOUND SERVING AS BTK INHIBITOR, PREPARATION METHOD THEREFOR, AND USE THEREOF” (CHENGDU HYPERWAY PHARMACEUTICALS CO., LTD., priority 2020, published 2023).
Like-named read-outs stand apart in the source and are kept apart here.

How the values were obtained:
[1] = Liver microsome metabolic stability test (human); assay type: in vitro ADME; conditions: liver microsomes, read-out: CLint (μL/min/mg) Human
Protocol: (§1) 1: To the sample wells of T0, T5, T10, T20, T30, T60 and NCF60, 10 μL of the test or reference working solution and 80 μL of microsome working solution (hepatic microsome with a protein concentration of 0.5 mg/mL) were added, and to Blank60 well, only the microsome working solution was added. Then samples of the Blank60, T5, T10, T20, T30 and T60 other than TO and NCF60 were placed in a 37° C. water bath and pre-incubated for about 10 min.
(§2) 2: To the TO sample well, 300 μL of stop solution (containing 200 ng/mL tolbutamide and 200 ng/mL labetalol in acetonitrile solution) was added first, followed by 10 μL of NADPH regeneration system working solution.
(§3) 3: After the pre-incubation of Blank60, T5, T10, T20, T30 and T60 incubation plates, 10 μL of NADPH regeneration system working solution was added to each sample well to start the reaction, and 10 μL of 100 mM potassium phosphate buffer was added to the NCF60 sample well.
(§4) 4: After incubation for an appropriate time (such as 5, 10, 20, 30 and 60 min), to each test sample well and control well of the Blank60, T5, T10, T20, T30, T60 and NCF60 plates, 300 μL of stop solution was added to terminate the reaction.
(§5) 5: All sample plates were shaken to mix well and centrifuged at 4000 rpm for 20 min, and 100 μL of the supernatant of the test sample or control sample was taken and diluted with 300 μL of pure water for LC-MS/MS analysis.
(§6) 6: Data analysis: T1/2 and CLint(mic) (μL/min/mg) values were calculated according to the first-order elimination kinetics. The first-order elimination kinetics equation was: […]

[2] = Liver microsome metabolic stability test (rat); assay type: in vitro ADME; conditions: liver microsomes, read-out: CLint (μL/min/mg) Rat
Protocol: as §1, §2, §3, §4, §5, §6

TMD8 cell proliferation = assay: In vitro cell proliferation inhibitory activity test (CTG), TMD8; assay type: cell-based; conditions: Homo sapiens, TMD8, 72 h, TMD8 cells
Protocol: (§7) Test Example 4: In Vitro Cell Proliferation Inhibitory Activity Test
(§8) Cells were cultured in 1640 medium, added with 10% inactivated FBS and 1% double antibiotics, and cultured at 37° C. and 5% CO2.
(§9) (1) Cells were routinely cultured until the cell density was 80%-90%, and the cells were harvested when their number reached the requirement.
(§10) (2) Cells were resuspended with corresponding culture medium, counted, and prepared into cell suspension at appropriate density.
(§11) (3) The cell suspension was added to a 96-well plate, 100 μL per well.
(§12) (4) Cells were cultured overnight in a 37° C., 5% CO2 incubator.
(§13) (1) The compounds to be tested were diluted with DMSO to make a stock solution with a final concentration of 20 mM for later use.
(§14) (2) The stock solution was diluted 10 times from 20 mM to 2 mM with DMSO, and then diluted 3 times from 2 mM to 9 concentrations.
(§15) (3) The blank control wells were cells plus 0.5% DMSO, as high-reading control wells.
(§16) (4) Wells with no cells and only medium were used as low-reading control wells.
(§17) 4: Cell treatment with compound
(§18) (1) 24 h after the cells were plated, the compounds acted alone, and 99 μL of growth medium was added to each well, followed by 1 μL of the compound prepared in step 3. The plate was shaken gently to mix uniformly, and then placed in a 37° C., 5% CO2 incubator.
(§19) (2) The cell plate was placed in an incubator for 72 h.
(§20) 5: Detection by CTG method
(§21) (1) The cell plate to be tested was placed at room temperature for 30 min, and 100 μL of medium was discarded from each well.
(§22) (2) 100 μL of CTG reagent (CelltiterGlo kit) was added to each well, placed on a fast shaker for 2 min, and stood at room temperature in the dark for 30 min.
(§23) (3) The chemiluminescent signal value was read with the Envision instrument.
(§24) IC50 was calculated by using GraphPad Prism 8 software. The IC50 (half inhibitory concentration) of the compound was derived using the following nonlinear fitting formula, and the results are shown in the following table:
(§25) Y=Bottom+(Top−Bottom)/(1+10^((Log IC50−X)×HillSlope))
(§26) X: log value of compound concentration, Y: inhibition rate (% inhibition)
(§27) Inhibition rate (% inhibition)=(reading of high-reading control well-reading of compound well)/(reading of high-reading control well-reading of low-reading control well)×100

[3] = system: TMD8 mouse subcutaneous xenograft tumor; assay: TMD8 pharmacodynamic model test; assay type: in vivo; conditions: same dose of 10 mg/kg, FIG. 1
Protocol: Test Example 7: TNMD8 Pharmacodynamic Model Test
Human diffuse large B-cell lymphoma TMD8 cells were monolayer-cultured in vitro in RPNHI1640 medium with […], 100 U/mL penicillin and 100 μg/mL streptomycin, in a 37° C., […] incubator. Routine digestion with trypsin-EDTA was performed twice a week for passaging. When the cell density was […] and the number reached the requirement, cells were harvested, counted and inoculated. 0.2 ml (1×10^7 cells) of TMVD8 cells (added with matrigel at a volume ratio of 1:1) were subcutaneously inoculated on the right back of each mouse. The mice were administered in groups when the average tumor volume reached about 137 mm^3. Tumor diameters were measured twice a week with vernier calipers. The tumor volume was calculated by the formula V=0.5 a×b^2, where a and b represent the long and short diameters of the tumor, respectively.

DOHH2 cell proliferation = assay: In vitro cell proliferation inhibitory activity test (CTG), DOHH2; assay type: cell-based; conditions: Homo sapiens, DOHH-2
Protocol: as §7, §8, §9, §10, §11, §12, §13, §14, §15, §16, §17, §18, §19, §20, §21, §22, §23, §24, §25, §26, §27

BT474 cell proliferation = assay: In vitro cell proliferation inhibitory activity test (CTG), BT474; assay type: cell-based; conditions: Homo sapiens, BT-474, BT474 cell proliferation
Protocol: as §7, §8, §9, §10, §11, §12, §13, §14, §15, §16, §17, §18, §19, §20, §21, §22, §23, §24, §25, §26, §27

[4] = system: NCI-N87 cell proliferation; assay: In vitro cell proliferation inhibitory activity test (CTG), NCI-N87; assay type: cell-based; conditions: Homo sapiens
Protocol: as §7, §8, §9, §10, §11, §12, §13, §14, §15, §16, §17, §18, §19, §20, §21, §22, §23, §24, §25, §26, §27

HER2 kinase = HER2 kinase (Homo sapiens, UniProt P04626); assay: HER2 kinase activity test (HTRF); assay type: biochemical
Protocol: Test Example 5: HER2 Kinase Activity Test
1. Her2 Kinase test steps
2) 100 nl of the diluted compound working solution was transferred into each well of a reaction plate (784075, Greiner) by an Echo 550 liquid hander. The reaction plate was sealed with a sealing film and centrifuged at 1000 g for 1 min.
3) 1 ng/μL Her2 kinase solution was prepared with 1× kinase reaction buffer.
4) 5 μL of the kinase solution prepared above was added to each well of the reaction plate. The plate was sealed with a sealing film, centrifuged at 1000 g for 1 min, and placed at room temperature for 10 min.
5) A mixture of 2× kinase substrate and ATP was prepared by using 1× kinase reaction buffer, and the 2× Her2 kinase substrate was 2 μM TK-substrate-biotin and 4 μM ATP
6) 5 μL of the mixture of 2× TK-substrate-biotin and ATP was added to the reaction plate, centrifuged at 1000 g for 30 seconds to start the reaction.
7) Her2 kinase test was performed at room temperature for 50 min of reaction.
9) 10 μL of the mixture of Sa-XL 665 and TK-antibody-Cryptate was added to each well, centrifuged at 1000 g for 30 seconds, and reacted at room temperature for 1 h.
10) The fluorescence signals at 615 nm (Cryptate) and 665 nm (XL665) were read by Envision 2104.
1) The percentage inhibition was calculated as follows: […]
Ratiopositive control: average value of Ratio 665/615 nm of all positive control wells in the plate.
Rationegative control: average value of Ratio 665/615 nm of all negative control wells in the plate.
2) Calculation of IC50 and fitting of dose-effect curve of compound:
The IC50 of the compound was derived using the following nonlinear fitting formula with GraphPad 6.0.
Y=Bottom+(Top−Bottom)/(1+10^((Log IC50−X)×HillSlope)).
X: log value of compound concentration; Y: percentage inhibition of compound

[5] = Blood-brain barrier permeability test, oral, SD rats; assay type: in vivo; conditions: rat, oral 10 mg/kg single dose; for concentration at 1 h / Kp at 1 h: time point 1 h; for concentration at 4 h / Kp at 4 h: time point 4 h
Protocol: Test Example 6: Blood-Brain Barrier Permeability Test
Each test compound was administered orally at a single dose of 10 mg/kg to SD rats for pharmacokinetic study. Each group included 9 rats. The test compound was dissolved in 5% DMSO+10% solutol+85% saline, vortexed for 1-2 min, and ultrasonicated for 5-10 min to prepare into a colorless, transparent and clear administration solution. Animals were fasted overnight before administration. 1 h, 2 h, and 4 h after administration, three SD rats were selected from each group to take about 0.2-0.3 mL of blood through their orbit. The blood sample was placed on ice once collected, and centrifuged to separate the plasma within 15 min (centrifugation conditions: 8000 rpm, 1 min, room temperature). The collected plasma was stored at −20° C. before analysis. Immediately after blood collection, the cerebrospinal fluid and brain tissue were collected. The cerebrospinal fluid was draw out by dural puncture with a micro-sampler syringe under direct vision. Namely, about 100 μl of cerebrospinal fluid was collected with a 100 μl micro sample syringe from the rat that was anesthetized by chloral hydrate, with the head-fixed, the back hair-cut off, a transverse incision (2 cm) made at the line connecting the roots of the two ears, and the muscle layer of the neck and skull base bluntly scraped to expose the foramen magnum. The cerebrospinal fluid was stored at −20° C. before analysis. The rat then was sacrificed immediately, with its head cut off. The dissected brain tissue, with the surface capillaries peeled off, was weighed, added with 3 times the amount of cold saline, homogenized by a homogenizer for 1 min, and stored at −20° C. before analysis. 20 μL of plasma sample and brain homogenate sample was respectively added into 200 μL of working internal standard solution (the same volume of vehicle was added to the blank instead of internal standard), vortexed for 1 min, and centrifuged at 13500 rpm for 10 min. 100 μL of the supernatant was taken and analyzed by LC-MS/MS. 20 μL of the cerebrospinal fluid was added into 60 μL of working internal standard solution (the same volume of vehicle, instead of internal standard, was added to the blank), vortexed for 1 min, and centrifuged at 13500 rpm for 10 min. 50 μL of the supernatant was taken and analyzed by LC-MS/MS.

[6] = brain, read-out: Drug concentration in brain tissue
[7] = brain/plasma, read-out: Brain tissue/plasma
[8] = cerebrospinal fluid, read-out: Drug concentration in cerebrospinal fluid
[9] = cerebrospinal fluid/plasma, read-out: Cerebrospinal fluid/plasma
[10] = plasma, read-out: Plasma drug concentration

Sequence of HER2 kinase (P04626 23-1255): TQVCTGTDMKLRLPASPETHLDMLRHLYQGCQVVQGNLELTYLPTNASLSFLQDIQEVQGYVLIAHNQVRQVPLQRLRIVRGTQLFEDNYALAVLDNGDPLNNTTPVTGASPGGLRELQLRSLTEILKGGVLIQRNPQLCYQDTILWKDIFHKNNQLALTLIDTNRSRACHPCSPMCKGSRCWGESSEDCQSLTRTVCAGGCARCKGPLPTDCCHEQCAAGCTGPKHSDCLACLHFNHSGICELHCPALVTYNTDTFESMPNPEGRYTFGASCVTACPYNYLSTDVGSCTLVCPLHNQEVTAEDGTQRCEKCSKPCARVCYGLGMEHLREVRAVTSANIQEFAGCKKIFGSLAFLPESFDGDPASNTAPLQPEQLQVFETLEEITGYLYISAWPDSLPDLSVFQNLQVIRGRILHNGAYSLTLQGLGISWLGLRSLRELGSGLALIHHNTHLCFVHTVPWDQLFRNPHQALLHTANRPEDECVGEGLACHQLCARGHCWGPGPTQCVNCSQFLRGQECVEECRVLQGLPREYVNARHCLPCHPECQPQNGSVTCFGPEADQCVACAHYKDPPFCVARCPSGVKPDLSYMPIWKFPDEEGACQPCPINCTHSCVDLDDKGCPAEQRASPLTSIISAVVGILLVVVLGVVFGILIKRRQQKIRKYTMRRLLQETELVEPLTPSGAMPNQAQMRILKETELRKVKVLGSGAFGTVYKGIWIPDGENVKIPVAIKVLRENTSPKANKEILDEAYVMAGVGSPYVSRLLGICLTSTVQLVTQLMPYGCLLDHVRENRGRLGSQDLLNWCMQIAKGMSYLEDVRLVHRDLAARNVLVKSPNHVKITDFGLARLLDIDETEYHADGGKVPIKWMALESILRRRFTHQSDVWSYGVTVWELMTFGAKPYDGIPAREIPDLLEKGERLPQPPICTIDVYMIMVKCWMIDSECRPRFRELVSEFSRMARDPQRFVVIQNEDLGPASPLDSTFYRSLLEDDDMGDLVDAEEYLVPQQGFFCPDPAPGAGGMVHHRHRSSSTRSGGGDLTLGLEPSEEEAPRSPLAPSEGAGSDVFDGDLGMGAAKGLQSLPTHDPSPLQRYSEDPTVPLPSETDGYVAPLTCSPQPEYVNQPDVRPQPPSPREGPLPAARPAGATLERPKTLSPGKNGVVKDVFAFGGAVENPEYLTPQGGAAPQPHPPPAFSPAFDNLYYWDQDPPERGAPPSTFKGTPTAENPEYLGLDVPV

COc1cccc(Oc2ccc(-c3nc(C4CCC(CO)OC4)n4ccnc(N)c34)cc2)c1C#N (single isomer, unassigned) [Example 89-P1]
microsomal CLint [1]: < 9.6 µL/min/mg | microsomal CLint [2]: 15.7 µL/min/mg | IC50 (TMD8 cell proliferation): 4.3 nM | inhibitory effect against the tumor compared with ARQ-531 and ibrutinib [3]: significantly better inhibitory effect against the tumor than the clinical phase II drug ARQ-531 and the marketed drug ibrutinib

O=C(c1ccc(Oc2ccccc2)cc1Cl)c1c[nH]c2ncnc(N[C@@H]3CC[C@@H](CO)OC3)c12 [ARQ-531, reference compound]
microsomal CLint [1]: < 9.6 µL/min/mg | microsomal CLint [2]: < 9.6 µL/min/mg | IC50 (TMD8 cell proliferation): 74.6 nM | IC50 (DOHH2 cell proliferation): 174 nM

Nc1nccn2c(C34CCC(CO)(CC3)OC4)nc(-c3ccc(C(F)(F)c4cccc(F)c4F)cc3)c12 [Example 130]
IC50 (BT474 cell proliferation): 89.9 nM | IC50 [4]: 100 nM | IC50 (HER2 kinase): 4.35 nM

Nc1nccn2c(C34CCC(CO)(CC3)OC4)nc(-c3ccc(C(F)(F)c4cccc(F)c4)cc3)c12 [Example 142]
IC50 (BT474 cell proliferation): 153 nM | IC50 [4]: 106 nM

Nc1nccn2c(C34CCC(CO)(CC3)OC4)nc(-c3ccc(C(F)(F)c4cccc(F)c4Cl)cc3)c12 [Example 146]
IC50 (BT474 cell proliferation): 86.9 nM | IC50 [4]: 82 nM | IC50 (HER2 kinase): 3.92 nM | concentration at 1 h [5, 6]: 296 ng/g | concentration at 4 h [5, 6]: 410 ng/g | Kp at 1 h [5, 7]: 0.78 | Kp at 4 h [5, 7]: 1.1 | concentration at 1 h [5, 8]: 27.4 ng/mL | concentration at 4 h [5, 8]: 34.3 ng/mL | Kp at 1 h [5, 9]: 0.072 | Kp at 4 h [5, 9]: 0.092 | concentration at 1 h [5, 10]: 380 ng/mL | concentration at 4 h [5, 10]: 373 ng/mL

COc1ccc(F)cc1C(=O)NCc1ccc(-c2nn([C@@H](C)C(F)(F)F)c(N)c2C(N)=O)cc1 [LOXO-305]
IC50 (TMD8 cell proliferation): 184 nM | IC50 (DOHH2 cell proliferation): 4990 nM

CC#CC(=O)N1CC[C@@H](n2c(=O)n(-c3ccc(Oc4ccccc4)cc3)c3c(N)ncnc32)C1 [Tirabrutinib, reference compound]
microsomal CLint [1]: 13.1 µL/min/mg | microsomal CLint [2]: 32.9 µL/min/mg | IC50 (TMD8 cell proliferation): 158 nM | IC50 (DOHH2 cell proliferation): 8090 nM | concentration at 1 h [5, 6]: 84 ng/g | concentration at 2 h ([5]; brain, time point 2 h, read-out: Drug concentration in brain tissue): 31.1 ng/g | concentration at 4 h [5, 6]: 13.3 ng/g | Kp at 1 h [5, 7]: 0.118 | Kp at 2 h ([5]; brain/plasma, time point 2 h, read-out: Brain tissue/plasma): 0.06 | Kp at 4 h [5, 7]: 0.054 | concentration at 1 h [5, 10]: 713 ng/mL | concentration at 2 h ([5]; plasma, time point 2 h, read-out: Plasma drug concentration): 515 ng/mL | concentration at 4 h [5, 10]: 226 ng/mL
